Test results as given in US9328099B2, “Cyanomethylpyrazole carboxamides as janus kinase inhibitors” (Merck Sharp & Dohme Corp., priority 2011, dated 2016).
pIC50: −log10 of the molar value.

How the values were obtained:
JAK1 = JAK1 (Homo sapiens (Human), UniProt P23458); assay: Jak Biochemical HTRF Assay, JAK1; conditions: HTRF biochemical assay, GST-tagged catalytic domain; top concentration tested […]; read-out: JAK1 IC50
Description: (§1) Jak Biochemical HTRF Assay Protocol
(§2) Subsequent reagent additions employed an Agilent Bravo.

JAK2 = JAK2 (Homo sapiens (Human), UniProt O60674); assay: Jak Biochemical HTRF Assay, JAK2; conditions: HTRF biochemical assay, GST-tagged catalytic domain; top concentration tested […]
Description: as §1, §2

Chain of JAK1 (P23458 875-1153): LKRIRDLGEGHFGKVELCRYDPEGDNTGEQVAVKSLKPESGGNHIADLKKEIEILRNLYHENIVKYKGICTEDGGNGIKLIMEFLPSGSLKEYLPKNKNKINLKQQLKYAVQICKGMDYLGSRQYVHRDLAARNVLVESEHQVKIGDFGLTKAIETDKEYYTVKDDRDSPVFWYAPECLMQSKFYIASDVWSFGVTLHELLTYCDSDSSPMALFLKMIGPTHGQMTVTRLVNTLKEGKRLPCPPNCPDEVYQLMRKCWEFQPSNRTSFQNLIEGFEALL
Chain of JAK2 (O60674 849-1124): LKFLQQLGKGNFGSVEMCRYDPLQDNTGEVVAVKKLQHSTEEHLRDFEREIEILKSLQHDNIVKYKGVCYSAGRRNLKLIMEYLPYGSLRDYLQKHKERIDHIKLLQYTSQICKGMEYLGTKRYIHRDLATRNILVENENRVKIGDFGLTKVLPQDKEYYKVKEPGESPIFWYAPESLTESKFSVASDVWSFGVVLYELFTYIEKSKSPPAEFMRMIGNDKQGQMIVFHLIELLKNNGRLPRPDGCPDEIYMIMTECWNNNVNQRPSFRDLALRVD

| Structure (SMILES) | pIC50 (JAK1) | pIC50 (JAK2) |
| --- | --- | --- |
| COc1cccc(S(=O)(=O)N2CCC(CC#N)(n3cc(C(N)=O)c(Nc4ccccc4)n3)CC2)c1 [Example 37-10, 1-{4-(cyanomethyl)-1-[(3-methoxyphenyl)sulfonyl]piperidin-4-yl}-3-(phenylamino)-1H-pyrazole-4-carboxamide] | 9.15 | 8.52 |
| N#CCC1(n2cc(C(N)=O)c(Nc3ccc(S(=O)(=O)C(F)F)cc3)n2)CCC(N2CCC(F)(F)CC2)CC1 (stereo not drawn) [Example 40-31, Cis or trans 1-[1-(cyanomethyl)-4-(4,4-difluoropiperidin-1-yl)cyclohexyl]-3-({4-[(difluoromethyl)sulfonyl]phenyl}amino)-1H-pyrazole-4-carboxamide] | 10.00 | 8.70 |
| N#CCC1(n2cc(C(N)=O)c(Nc3ccc(F)cc3)n2)CCN(C(=O)OC2CCCOC2)CC1 (stereo not drawn) [Example 30-25, tetrahydro-2H-pyran-3-yl 4-{4-carbamoyl-3-[(4-fluorophenyl)amino]-1H-pyrazol-1-yl}-4-(cyanomethyl)piperidine-1-carboxylate] | 8.40 | 6.92 |
| N#CCC1(n2cc(C(N)=O)c(Nc3ccnc(F)c3)n2)CCN(Cc2cc3ccccc3[nH]2)CC1 [Example 22-39, 1-[4-(cyanomethyl)-1-(1H-indol-2-ylmethyl)piperidin-4-yl]-3-[(2-fluoropyridin-4-yl)amino]-1H-pyrazole-4-carboxamide] | 9.70 | 7.85 |
| Cc1cc(N2CCC(CC#N)(n3cc(C(N)=O)c(Nc4ccc(F)cc4)n3)CC2)cnc1F [Example 3-56, 1-[4-(cyanomethyl)-1-(6-fluoro-5-methylpyridin-3-yl)piperidin-4-yl]-3-[(4-fluorophenyl)amino]-1H-pyrazole-4-carboxamide] | 9.00 | 7.64 |
| N#CCC1(n2cc(C(N)=O)c(Nc3ccccc3)n2)CCN(Cc2cccc(O)c2)CC1 [Example 21-11, 1-[4-(cyanomethyl)-1-(3-hydroxybenzyl)piperidin-4-yl]-3-(phenylamino)-1H-pyrazole-4-carboxamide] | 9.52 | 8.22 |
| N#CCC1(n2cc(C(N)=O)c(Nc3ccnc(F)c3)n2)CCN(Cc2ccc(F)cn2)CC1 [Example 22-36, 1-{4-(cyanomethyl)-1-[(5-fluoropyridin-2-yl)methyl]piperidin-4-yl}-3-[(2-fluoropyridin-4-yl)amino]-1H-pyrazole-4-carboxamide] | 8.70 | 7.01 |
| N#CC[C@]1(n2cc(C(N)=O)c(Nc3ccc(S(=O)(=O)C(F)F)cc3)n2)CC[C@H](N)CC1 [Example 41-3] | 9.00 | 7.48 |
| N#CCC1(n2cc(C(N)=O)c(Nc3ccc(F)cc3)n2)CCN(CC2CC2)CC1 [Example 24-2, 1-[4-(cyanomethyl)-1-(cyclopropylmethyl)piperidin-4-yl]-3-[(4-fluorophenyl)amino]-1H-pyrazole-4-carboxamide] | 7.39 | 6.04 |
| N#CCC1(n2cc(C(N)=O)c(Nc3ccc(S(=O)(=O)C(F)F)cc3)n2)CCC(N2CCC(F)(F)CC2)CC1 (stereo not drawn) [Example 40-42, Cis or trans 1-[1-(cyanomethyl)-4-(4,4-difluoropiperidin-1-yl)cyclohexyl]-3-({4-[(difluoromethyl)sulfonyl]phenyl}amino)-1H-pyrazole-4-carboxamide] | 7.19 | 6.11 |
| N#CCC1(n2cc(C(N)=O)c(Nc3ccnc(F)c3)n2)CCC(NCc2ccccc2O)CC1 (stereo not drawn) [Example 41-7, Cis or trans 1-{1-(cyanomethyl)-4-[(2-hydroxybenzyl)amino]cyclohexyl}-3-[(2-fluoropyridin-4-yl)amino]-1H-pyrazole-4-carboxamide] | 7.92 | 6.33 |
| N#CCC1(n2cc(C(N)=O)c(Nc3ccccc3)n2)CCN(Cc2ccc(-c3ccccc3)cc2)CC1 [Example 21-1, 1-[1-(Biphenyl-4-ylmethyl)-4-(cyanomethyl)piperidin-4-yl]-3-(phenylamino)-1H-pyrazole-4-carboxamide] | 8.22 | 7.34 |
| CC(C)[C@H](O)C(=O)N1CCC(CC#N)(n2cc(C(N)=O)c(Nc3ccnc(F)c3)n2)CC1 [Example 34-47, 1-{4-(cyanomethyl)-1-[(2S)-2-hydroxy-3-methylbutanoyl]piperidin-4-yl}-3-[(2-fluoropyridin-4-yl)amino]-1H-pyrazole-4-carboxamide] | 8.70 | 7.10 |
| N#CCC1(n2cc(C(N)=O)c(Nc3ccnc(F)c3)n2)CCN(C(=O)CC2CC2)CC1 [Example 34-45, 1-[4-(cyanomethyl)-1-(cyclopropylacetyl)piperidin-4-yl]-3-[(2-fluoropyridin-4-yl)amino]-1H-pyrazole-4-carboxamide] | 9.00 | 7.34 |
| N#CCC1(n2cc(C(N)=O)c(Nc3ccnc(F)c3)n2)CCC(NCC(F)(F)F)CC1 (stereo not drawn) [Example 40-93, Cis or trans 1-{1-(cyanomethyl)-4-[(2,2,2-trifluoroethyl)amino]cyclohexyl}-3-[(2-fluoropyridin-4-yl)amino]-1H-pyrazole-4-carboxamide] | 6.78 | < 5.83 |
| COC1CC(CN2CCC(CC#N)(n3cc(C(N)=O)c(Nc4ccnc(F)c4)n3)CC2)C1 (stereo not drawn) [Example 22-37, 1-{4-(cyanomethyl)-1-[(3-methoxycyclobutyl)methyl]piperidin-4-yl}-3-[(2-fluoropyridin-4-yl)amino]-1H-pyrazole-4-carboxamide] | 7.06 | < 5.83 |
| CCCCNC(=O)N1CC(CC#N)(n2cc(C(N)=O)c(Nc3ccc(S(C)(=O)=O)cc3)n2)C1 [Example 38-43, 1-[1-(butylcarbamoyl)-3-(cyanomethyl)azetidin-3-yl]-3-{[4-(methylsulfonyl)phenyl]amino}-1H-pyrazole-4-carboxamide] | 7.70 | 6.49 |
| COc1ccc(C)cc1NC(=O)N1CC(CC#N)(n2cc(C(N)=O)c(Nc3ccccc3)n2)C1 [Example 38-25, 1-{3-(cyanomethyl)-1-[(2-methoxy-5-methylphenyl)carbamoyl]azetidin-3-yl}-3-(phenylamino)-1H-pyrazole-4-carboxamide] | 7.74 | 6.77 |
| N#CCC1(n2cc(C(N)=O)c(Nc3ccc(F)cc3)n2)CCN(C(=O)OCC2CCC2)CC1 [Example 30-5, cyclobutylmethyl 4-(4-carbamoyl-3-(4-fluorophenylamino)-1H-pyrazol-1-yl)-4-(cyanomethyl)piperidine-1-carboxylate] | 8.40 | 6.92 |
| N#CCC1(n2cc(C(N)=O)c(Nc3ccc(F)cc3)n2)CCC(Nc2ccc(Cl)cc2)CC1 (stereo not drawn) [Example 40-53, Cis or trans 1-{4-[(4-chlorophenyl)amino]-1-(cyanomethyl)cyclohexyl}-3-[(4-fluorophenyl)amino]-1H-pyrazole-4-carboxamide] | 6.40 | < 5.83 |
| CC(C)(C)OC(=O)N1CCC(CC#N)(n2cc(C(N)=O)c(Nc3cccc(-c4ccc(F)cc4)c3)n2)CC1 [Example 15-2, tert-butyl 4-{4-carbamoyl-3-[(4′-fluorobiphenyl-3-yl)amino]-1H-pyrazol-1-yl}-4-(cyanomethyl)piperidine-1-carboxylate] | 7.29 | 5.96 |
| CC(C)(C)OC(=O)N1CCC(CC#N)(n2cc(C(N)=O)c(Nc3ccc(Br)cc3)n2)CC1 [Example 2-2, tert-butyl 4-{3-[(4-bromophenyl)amino]-4-carbamoyl-1H-pyrazol-1-yl}-4-(cyanomethyl)piperidine-1-carboxylate] | 9.30 | 7.64 |
| CC(C)(C)OC(=O)N1CC(CC#N)(n2cc(C(N)=O)c(Nc3ccccc3)n2)C1 [Example 2-3, tert-butyl 3-[4-carbamoyl-3-(phenylamino)-1H-pyrazol-1-yl]-3-(cyanomethyl)azetidine-1-carboxylate] | 8.10 | 7.24 |
| COC1CN(C2CCC(CC#N)(n3cc(C(N)=O)c(Nc4ccnc(F)c4)n3)CC2)C1 (stereo not drawn) [Example 40-94, Cis or trans 1-[1-(cyanomethyl)-4-(3-methoxyazetidin-1-yl)cyclohexyl]-3-[(2-fluoropyridin-4-yl)amino]-1H-pyrazole-4-carboxamide] | 6.63 | < 5.83 |
| N#CCC1(n2cc(C(N)=O)c(Nc3ccc(F)cc3)n2)CCN(C(=O)OC(CF)CF)CC1 [Example 30-9, 1,3-difluoropropan-2-yl 4-(4-carbamoyl-3-(4-fluorophenylamino)-1H-pyrazol-1-yl)-4-(cyanomethyl)piperidine-1-carboxylate] | 9.52 | 8.30 |
| CC(C)(C)OC(=O)N1CCC(CC#N)(n2cc(C(N)=O)c(Nc3ccc(CC(=O)O)cc3)n2)CC1 [Example 18, [4-({1-[1-(tert-Butoxycarbonyl)-4-(cyanomethyl)piperidin-4-yl]-4-carbamoyl-1H-pyrazol-3-yl}amino)phenyl]acetic acid] | 10.00 | 8.00 |
| N#CCC1(n2cc(C(N)=O)c(Nc3ccc(F)cc3)n2)CCN(C(=O)OCC(F)(F)F)CC1 [Example 30-2, 2,2,2-trifluoroethyl 4-(4-carbamoyl-3-(4-fluorophenylamino)-1H-pyrazol-1-yl)-4-(cyanomethyl)piperidine-1-carboxylate] | 9.52 | 7.82 |
| N#CCC1(n2cc(C(N)=O)c(Nc3ccc(F)cc3)n2)CCN(Cc2cccnc2)CC1 [Example 22-51, 1-[4-(cyanomethyl)-1-(pyridin-3-ylmethyl)piperidin-4-yl]-3-[(4-fluorophenyl)amino]-1H-pyrazole-4-carboxamide] | 9.40 | 8.05 |
| COc1ccc2cc(CN3CCC(CC#N)(n4cc(C(N)=O)c(Nc5ccccc5)n4)CC3)ccc2c1 [Example 21-13, 1-{4-(cyanomethyl)-1-[(6-methoxynaphthalen-2-yl)methyl]piperidin-4-yl}-3-(phenylamino)-1H-pyrazole-4-carboxamide] | 7.62 | 6.53 |
| N#CCC1(n2cc(C(N)=O)c(Nc3ccc(F)cc3)n2)CCC(Nc2cccnc2)CC1 (stereo not drawn) [Example 40-39, Cis or trans 1-[1-(cyanomethyl)-4-(pyridin-3-ylamino)cyclohexyl]-3-[(4-fluorophenyl)amino]-1H-pyrazole-4-carboxamide] | 7.52 | 6.12 |
